Test results reported in patent US20260224716A1, “PTH ANALOGS FOR THE TREATMENT OF HYPOPARATHYROIDISM” (priority 2020, published 2026).
One block for each compound: values may come before it. *1 amine or outer side, *2 acyl side, *3 side chain or, on linkers, in order; H or OH if unused. Where a SMILES comes first, the peptide text is derived from it. Side-chain parts run from the residue outwards. The star is where a group is joined. C18 diacid = O=C(O)CCCCCCCCCCCCCCCCC(=O)*; γGlu = O=C(O)[C@H](CCC(=O)[*:2])N[*:1]; AEEA = NCCOCCOCC(=O)O

What was measured:
[1] = Cleavage half-life / conversion of PTH prodrugs in PBS pH 7.4, 37° C. by LC-MS; assay type: physicochemical
Description: The resulting solution was incubated at 37° C. Aliquots were taken at designed time points and analyzed by LC-MS. […] Flow rate of 1 mL/min and a gradient of 10%-80% acetonitrile in water, with 0.1% trifluoroacetic acid over 10 min. […] The concentration of prodrug and drug were determined by their relative peak areas. The […] dissociation rate constant of the prodrug was determined by plotting the logarithm in the concentration of the prodrug at various time points.

[2] = target: T1, PTHR1 (Homo sapiens, UniProt Q03431); assay: cAMP Hunter Teriparatide Bioassay (CHO-K1 PTHR1 cells); assay type: cell-based
T1 construct: host or cells: CHO-K1
T1 sequence (Q03431 27-593): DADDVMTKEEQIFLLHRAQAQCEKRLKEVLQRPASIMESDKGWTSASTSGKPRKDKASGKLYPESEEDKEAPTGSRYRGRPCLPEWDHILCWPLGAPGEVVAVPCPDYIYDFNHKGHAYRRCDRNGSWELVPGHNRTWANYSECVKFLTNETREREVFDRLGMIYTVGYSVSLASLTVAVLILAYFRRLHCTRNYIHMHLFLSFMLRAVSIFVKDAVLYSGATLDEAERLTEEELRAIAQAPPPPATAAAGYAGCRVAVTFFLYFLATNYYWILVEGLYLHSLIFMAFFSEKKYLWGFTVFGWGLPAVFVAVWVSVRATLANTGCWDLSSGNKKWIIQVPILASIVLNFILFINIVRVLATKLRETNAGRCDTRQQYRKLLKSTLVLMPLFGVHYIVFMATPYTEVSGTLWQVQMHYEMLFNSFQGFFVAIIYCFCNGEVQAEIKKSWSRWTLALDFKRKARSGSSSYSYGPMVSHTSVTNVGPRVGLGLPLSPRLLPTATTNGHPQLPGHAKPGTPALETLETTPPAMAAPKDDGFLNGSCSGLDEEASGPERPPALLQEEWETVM

Compound: CC[C@H](C)[C@H](NC(=O)[C@H](CCC(=O)O)NC(=O)[C@H](CO)NC(=O)[C@@H](NC(=O)[C@H](CO)NC(=O)CN(C(=O)[C@H](N)CCCCNC(=O)CC[C@H](NC(=O)CCCCCCCCCCCCCCCCC(=O)O)C(=O)O)C(C)C)C(C)C)C(=O)N[C@@H](CCC(N)=O)C(=O)N[C@@H](CC(C)C)C(=O)N[C@@H](CCSC)C(=O)N[C@@H](Cc1c[nH]cn1)C(=O)N[C@@H](CC(N)=O)C(=O)N[C@@H](CC(C)C)C(=O)NCC(=O)N[C@@H](CCCCN)C(=O)N[C@@H](Cc1c[nH]cn1)C(=O)N[C@@H](CC(C)C)C(=O)N[C@@H](CC(N)=O)C(=O)N[C@@H](CO)C(=O)N[C@@H](CCSC)C(=O)N[C@@H](CCC(=O)O)C(=O)N[C@@H](CCCNC(=N)N)C(=O)N[C@H](C(=O)N[C@@H](CCC(=O)O)C(=O)N[C@@H](Cc1c[nH]c2ccccc12)C(=O)N[C@@H](CC(C)C)C(=O)N[C@@H](CCCNC(=N)N)C(=O)N[C@@H](CCCCN)C(=O)N[C@@H](CCCCN)C(=O)N[C@@H](CC(C)C)C(=O)N[C@@H](CCC(N)=O)C(=O)N[C@@H](CC(=O)O)C(=O)N[C@H](C(=O)N[C@@H](Cc1c[nH]cn1)C(=O)N[C@@H](CC(N)=O)C(=O)N[C@@H](Cc1ccccc1)C(=O)O)C(C)C)C(C)C [SEQ ID NO: 46]
- half-life ([1]; PBS buffer, dipeptide cleavage from PTH prodrug, PBS pH 7.4, 37° C., read-out: Half life (converted)): 47 h
- Half life, fold faster (vs SEQ ID NO: 45) ([1]; comparator SEQ ID NO: 45): 1.9 faster than Sar

Compound: CC[C@H](C)[C@H](NC(=O)[C@H](CCC(=O)O)NC(=O)[C@H](CO)NC(=O)[C@@H](NC(=O)[C@@H](N)CO)C(C)C)C(=O)N[C@@H](CCC(N)=O)C(=O)N[C@@H](CC(C)C)C(=O)N[C@@H](CCSC)C(=O)N[C@@H](Cc1c[nH]cn1)C(=O)N[C@@H](CC(N)=O)C(=O)N[C@@H](CC(C)C)C(=O)NCC(=O)N[C@@H](CCCCN)C(=O)N[C@@H](Cc1c[nH]cn1)C(=O)N[C@@H](CC(C)C)C(=O)N[C@@H](CC(N)=O)C(=O)N[C@@H](CO)C(=O)N[C@@H](CC[S+](C)[O-])C(=O)N[C@@H](CCC(=O)O)C(=O)N[C@@H](CCCNC(=N)N)C(=O)N[C@H](C(=O)N[C@@H](CCC(=O)O)C(=O)N[C@@H](Cc1c[nH]c2ccccc12)C(=O)N[C@@H](CC(C)C)C(=O)N[C@@H](CCCNC(=N)N)C(=O)N[C@@H](CCCCN)C(=O)N[C@@H](CCCCN)C(=O)N[C@@H](CC(C)C)C(=O)N[C@@H](CCC(N)=O)C(=O)N[C@@H](CC(=O)O)C(=O)N[C@H](C(=O)N[C@@H](Cc1c[nH]cn1)C(=O)N[C@@H](CCCCNC(=O)CC[C@H](NC(=O)COCCOCCNC(=O)COCCOCCNC(=O)CC[C@H](NC(=O)CCCCCCCCCCCCCCCCC(=O)O)C(=O)O)C(=O)O)C(=O)O)C(C)C)C(C)C (stereo partly shown) [SEQ ID NO: 110]
- Hillslope ([2]; FIG. 12): 3.034
- S/B ([2]; FIG. 12): 14.2

Compound: CC[C@H](C)[C@H](NC(=O)[C@H](CCC(=O)O)NC(=O)[C@H](CO)NC(=O)[C@@H](NC(=O)[C@@H](N)CO)C(C)C)C(=O)N[C@@H](CCC(=O)O)C(=O)N[C@@H](CC(C)C)C(=O)N[C@@H](CCSC)C(=O)N[C@@H](Cc1c[nH]cn1)C(=O)N[C@@H](CC(N)=O)C(=O)N[C@@H](CC(C)C)C(=O)NCC(=O)N[C@@H](CCCCN)C(=O)N[C@@H](Cc1c[nH]cn1)C(=O)N[C@@H](CC(C)C)C(=O)N[C@@H](CC(N)=O)C(=O)N[C@@H](CO)C(=O)N[C@@H](CCSC)C(=O)N[C@@H](CCC(=O)O)C(=O)N[C@@H](CCCNC(=N)N)C(=O)N[C@H](C(=O)N[C@@H](CCC(=O)O)C(=O)N[C@@H](Cc1c[nH]c2ccccc12)C(=O)N[C@@H](CC(C)C)C(=O)N[C@@H](CCCNC(=N)N)C(=O)N[C@@H](CCCCN)C(=O)N[C@@H](CCCCN)C(=O)N[C@@H](CC(C)C)C(=O)N[C@@H](CCC(N)=O)C(=O)N[C@@H](CC(=O)O)C(=O)N[C@H](C(=O)N[C@@H](Cc1c[nH]cn1)C(=O)N[C@@H](CCCCNC(=O)CC[C@H](NC(=O)COCCOCCNC(=O)COCCOCCNC(=O)CC[C@H](NC(=O)CCCCCCCCCCCCCCCCC(=O)O)C(=O)O)C(=O)O)C(=O)O)C(C)C)C(C)C [SEQ ID NO: 118] (H-SVSEIELMHNLGKHLNSMERVEWLRKKLQDVHK([γGlu-AEEA-AEEA-γGlu-C18 diacid])-OH; N-terminus and C-terminus assumed)
- Hillslope ([2]; FIG. 13A): 1.648
- S/B ([2]; FIG. 13A): 9.4

Compound: SEQ ID NO: 109: PTH analog site-specifically modified by oxidation to methionine sulfoxide (SVSEIQLXHNLGKHLNSMERVEWLRKKLQDVHX; SITE 8 MISC_FEATURE - Xaa at position 8 is Met wherein the side chain is oxidized to form a sulfoxide; SITE 33 MISC_FEATURE - Xaa at position 33 is Lys wherein the side chain is acylated with COC16H32CO2H via a gamma Glu-(MINIPEG)2-gamma Glu spacer; listed as Homo sapiens)
- S/B ([2]; FIG. 12): 1.7

The remaining lines, values ahead:

- Hillslope ([2]; FIG. 13A): 2.804
- S/B ([2]; FIG. 13A): 10
Compound: CC[C@H](C)[C@H](NC(=O)[C@H](CCC(=O)O)NC(=O)[C@H](CO)NC(=O)[C@@H](NC(=O)[C@@H](N)CO)C(C)C)C(=O)N[C@@H](CCC(N)=O)C(=O)N[C@@H](CC(C)C)C(=O)N[C@@H](CCSC)C(=O)N[C@@H](Cc1c[nH]cn1)C(=O)N[C@@H](CC(=O)O)C(=O)N[C@@H](CC(C)C)C(=O)NCC(=O)N[C@@H](CCCCN)C(=O)N[C@@H](Cc1c[nH]cn1)C(=O)N[C@@H](CC(C)C)C(=O)N[C@@H](CC(N)=O)C(=O)N[C@@H](CO)C(=O)N[C@@H](CCSC)C(=O)N[C@@H](CCC(=O)O)C(=O)N[C@@H](CCCNC(=N)N)C(=O)N[C@H](C(=O)N[C@@H](CCC(=O)O)C(=O)N[C@@H](Cc1c[nH]c2ccccc12)C(=O)N[C@@H](CC(C)C)C(=O)N[C@@H](CCCNC(=N)N)C(=O)N[C@@H](CCCCN)C(=O)N[C@@H](CCCCN)C(=O)N[C@@H](CC(C)C)C(=O)N[C@@H](CCC(N)=O)C(=O)N[C@@H](CC(=O)O)C(=O)N[C@H](C(=O)N[C@@H](Cc1c[nH]cn1)C(=O)N[C@@H](CCCCNC(=O)CC[C@H](NC(=O)COCCOCCNC(=O)COCCOCCNC(=O)CC[C@H](NC(=O)CCCCCCCCCCCCCCCCC(=O)O)C(=O)O)C(=O)O)C(=O)O)C(C)C)C(C)C [SEQ ID NO: 120] (H-SVSEIQLMHDLGKHLNSMERVEWLRKKLQDVHK([γGlu-AEEA-AEEA-γGlu-C18 diacid])-OH)

- Hillslope ([2]; FIG. 13B): 2.522
- S/B ([2]; FIG. 13B): 8.2
Compound: CC[C@H](C)[C@H](NC(=O)[C@H](CCC(=O)O)NC(=O)[C@H](CO)NC(=O)[C@@H](NC(=O)[C@@H](N)CO)C(C)C)C(=O)N[C@@H](CCC(N)=O)C(=O)N[C@@H](CC(C)C)C(=O)N[C@@H](CCSC)C(=O)N[C@@H](Cc1c[nH]cn1)C(=O)N[C@@H](CC(N)=O)C(=O)N[C@@H](CC(C)C)C(=O)NCC(=O)N[C@@H](CCCCN)C(=O)N[C@@H](Cc1c[nH]cn1)C(=O)N[C@@H](CC(C)C)C(=O)N[C@@H](CC(=O)O)C(=O)N[C@@H](CO)C(=O)N[C@@H](CCSC)C(=O)N[C@@H](CCC(=O)O)C(=O)N[C@@H](CCCNC(=N)N)C(=O)N[C@H](C(=O)N[C@@H](CCC(=O)O)C(=O)N[C@@H](Cc1c[nH]c2ccccc12)C(=O)N[C@@H](CC(C)C)C(=O)N[C@@H](CCCNC(=N)N)C(=O)N[C@@H](CCCCN)C(=O)N[C@@H](CCCCN)C(=O)N[C@@H](CC(C)C)C(=O)N[C@@H](CCC(N)=O)C(=O)N[C@@H](CC(=O)O)C(=O)N[C@H](C(=O)N[C@@H](Cc1c[nH]cn1)C(=O)N[C@@H](CCCCNC(=O)CC[C@H](NC(=O)COCCOCCNC(=O)COCCOCCNC(=O)CC[C@H](NC(=O)CCCCCCCCCCCCCCCCC(=O)O)C(=O)O)C(=O)O)C(=O)O)C(C)C)C(C)C [SEQ ID NO: 122] (H-SVSEIQLMHNLGKHLDSMERVEWLRKKLQDVHK([γGlu-AEEA-AEEA-γGlu-C18 diacid])-OH; N-terminus and C-terminus assumed)

- Hillslope ([2]; FIG. 13B): 1.797
- S/B ([2]; FIG. 13B): 8.9
Compound: CC[C@H](C)[C@H](NC(=O)[C@H](CCC(=O)O)NC(=O)[C@H](CO)NC(=O)[C@@H](NC(=O)[C@@H](N)CO)C(C)C)C(=O)N[C@@H](CCC(N)=O)C(=O)N[C@@H](CC(C)C)C(=O)N[C@@H](CCSC)C(=O)N[C@@H](Cc1c[nH]cn1)C(=O)N[C@@H](CC(N)=O)C(=O)N[C@@H](CC(C)C)C(=O)NCC(=O)N[C@@H](CCCCN)C(=O)N[C@@H](Cc1c[nH]cn1)C(=O)N[C@@H](CC(C)C)C(=O)N[C@@H](CC(N)=O)C(=O)N[C@@H](CO)C(=O)N[C@@H](CCSC)C(=O)N[C@@H](CCC(=O)O)C(=O)N[C@@H](CCCNC(=N)N)C(=O)N[C@H](C(=O)N[C@@H](CCC(=O)O)C(=O)N[C@@H](Cc1c[nH]c2ccccc12)C(=O)N[C@@H](CC(C)C)C(=O)N[C@@H](CCCNC(=N)N)C(=O)N[C@@H](CCCCN)C(=O)N[C@@H](CCCCN)C(=O)N[C@@H](CC(C)C)C(=O)N[C@@H](CCC(=O)O)C(=O)N[C@@H](CC(=O)O)C(=O)N[C@H](C(=O)N[C@@H](Cc1c[nH]cn1)C(=O)N[C@@H](CCCCNC(=O)CC[C@H](NC(=O)COCCOCCNC(=O)COCCOCCNC(=O)CC[C@H](NC(=O)CCCCCCCCCCCCCCCCC(=O)O)C(=O)O)C(=O)O)C(=O)O)C(C)C)C(C)C [SEQ ID NO: 124] (H-SVSEIQLMHNLGKHLNSMERVEWLRKKLEDVHK([γGlu-AEEA-AEEA-γGlu-C18 diacid])-OH; N-terminus and C-terminus assumed)
